target: T1, human muscarinic acetylcholine M3 receptor (M3-ACh) (Homo sapiens, UniProt P20309); assay: biochemical; format: binding
T1 construct: expressed in transfected cells; host or cells: CHO-KL (Chinese Hamster Ovary) cells, membranes
T1 sequence (P20309 whole entry): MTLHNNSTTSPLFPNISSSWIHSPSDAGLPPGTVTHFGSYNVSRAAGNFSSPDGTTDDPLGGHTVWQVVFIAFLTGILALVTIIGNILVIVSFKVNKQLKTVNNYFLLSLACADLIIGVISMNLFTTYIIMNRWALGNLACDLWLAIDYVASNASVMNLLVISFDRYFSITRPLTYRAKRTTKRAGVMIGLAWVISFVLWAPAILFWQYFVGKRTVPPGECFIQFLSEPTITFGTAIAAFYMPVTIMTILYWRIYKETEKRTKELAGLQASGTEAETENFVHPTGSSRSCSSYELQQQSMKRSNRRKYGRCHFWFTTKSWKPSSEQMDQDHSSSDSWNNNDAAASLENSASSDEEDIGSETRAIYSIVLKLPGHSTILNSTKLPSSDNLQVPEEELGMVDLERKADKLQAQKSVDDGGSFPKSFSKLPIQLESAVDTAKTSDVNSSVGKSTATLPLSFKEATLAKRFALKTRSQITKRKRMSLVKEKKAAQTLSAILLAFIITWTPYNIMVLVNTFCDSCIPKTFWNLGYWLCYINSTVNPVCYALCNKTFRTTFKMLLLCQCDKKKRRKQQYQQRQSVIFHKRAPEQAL

Point of comparison: `CN1CC[C@@H](OC(=O)[C@@](C)(c2ccccc2)C2CCCC2)C1` [Example 2a, (3R)-1-Methylpyrrolidin-3-yl (2R)-2-cyclopentyl-2-phenylpropanoate], IC50 7.94 nM. Against it:
- C[C@@](C(=O)O[C@@H]1CCC[N+](C)(C)C1)(c1ccccc1)C1CCCC1 [Example 5, (3R)-3-{[(2S)-2-Cyclopentyl-2-phenylpropanoyl]oxy}-1,1-dimethylpiperidinium iodide] — 6.3-fold lower, 1.26 nM
- CN1CC[C@H](OC(=O)[C@@](C)(c2ccccc2)C2CCCC2)C1 [Example 1f, (3S)-1-Methylpyrrolidin-3-yl (2R)-2-cyclopentyl-2-phenylpropanoate] — 2.5-fold higher, 20 nM
- CN1CC[C@@H](OC(=O)[C@](C)(c2ccccc2)C2CCCC2)C1 [Example 4a, (3R)-1-Methylpyrrolidin-3-yl (2S)-2-cyclopentyl-2-phenylpropanoate] — 10-fold lower, 0.794 nM
- CN1CC[C@H](OC(=O)[C@](C)(c2ccccc2)C2CCCC2)C1 [Example 3c, (3S)-1-Methylpyrrolidin-3-yl (2S)-2-cyclopentyl-2-phenylpropanoate] — 2.5-fold lower, 3.16 nM
- C[C@@](C(=O)O[C@H]1CCC[N+](C)(C)C1)(c1ccccc1)C1CCCC1 [Example 6, (3S)-3-{[(2S)-2-Cyclopentyl-2-phenylpropanoyl]oxy}-1,1-dimethylpiperidinium iodide] — 2.5-fold higher, 20 nM

Source: patent publication US20090042942A1 (priority 2005, published 2009)
